Experiment in all cases: NCI-60 cell line screen, 48 h
Assay [1] deals with 786-0.
The subject of assay [2] is HCT-116.
For assay [3], the system named is HL-60.
The subject of assay [4] is HOP-62.
In assay [5] the test system is K562.
Assay [6] has as its system MOLT-4.
The subject of assay [7] is NCI-H226.
The subject of assay [8] is OVCAR-3.
Assay [9] relates to SK-MEL-28.
Assay [10] concerns SK-MEL-5.
Assay [11] relates to SK-OV-3.
Assay [12] concerns SN12C.
For assay [13], the system named is SNB-19.
Assay [14] has as its system SW-620.
Assay [15] relates to TK-10.
The test system of assay [16] is CAKI-1.

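Test compounds were applied to cells in 96-well plates for 48 hours at 5 doses. GI50 is the concentration that inhibits growth by half.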 Calls of active or inactive are those of the source. No stated cut-off is given here; in the data, active = GI50 up to about 1.1 µM and inactive = higher. Some results are limits rather than exact numbers.

For the molecule `CCC(CC)NC1=C(NC(C)=O)C(=O)c2ccccc2C1=O`, the GI50 in [1], in [2], in [3], in [4], in assay [5] and in assay [6] was > 50 µM (inactive) each time. Also, the GI50 in assay [7], in assay [8], in assay [9], in assay [10], in [11] and in assay [12] was > 50 µM (inactive) throughout. In addition, the GI50 in [13], in assay [14] and in assay [15] was > 50 µM (inactive) throughout.
For the molecule `C=CCCC(C)N(C(=O)OC(C)(C)C)S(=O)(=O)c1ccc(C)cc1` (stereo not given), the GI50 in assay [1], in assay [16], in assay [2], in [3], in [4] and in assay [5] was > 100 µM (inactive) each time. Moreover, the GI50 in assay [6] was 97.1 µM (inactive); in [7] it was > 100 µM (inactive); in assay [8] it was > 100 µM (inactive); in assay [9] it was > 100 µM (inactive); in assay [11], > 100 µM (inactive); in assay [12], > 100 µM (inactive). Further, the GI50 in assay [13], in assay [14] and in [15] was > 100 µM (inactive) in each case.
On to `NC(CCCC(N)P(=O)(O)c1ccccc1)P(=O)(O)c1ccccc1` (stereo not given), for which the GI50 in [1], in assay [2], in [3], in [4], in [5] and in assay [6] was > 261 µM (inactive) throughout. For the same molecule, the GI50 in [7], in assay [8], in assay [9], in [11], in [12] and in assay [13] was > 261 µM (inactive) in each case. Besides, the GI50 in assay [14] and in assay [15] was > 261 µM (inactive) throughout.
Consider `Cc1ccc(C2[C@H]3C(=O)N(c4ccc(Cc5ccc(N6C(=O)[C@@H]7ON(c8ccccc8)C(c8ccc(C)cc8)[C@@H]7C6=O)cc5)cc4)C(=O)[C@H]3ON2c2ccccc2)cc1` (stereo not given in full), for which the GI50 in assay [1], in assay [16], in assay [3], in [4], in assay [5] and in assay [6] was > 100 µM (inactive) throughout. For the same molecule, the GI50 in assay [7], in assay [8], in assay [9], in [10], in assay [11] and in assay [12] was > 100 µM (inactive) in each case. In addition, the GI50 in assay [14] is > 100 µM (inactive).
As for `O=C1NC(=O)C(C(=O)C(=O)Nc2cc(Cl)ccc2Cl)C(=O)N1`, the GI50 in assay [1], in assay [2], in assay [3], in assay [4], in assay [5] and in assay [6] was > 100 µM (inactive) in each case. The GI50 in [8], in assay [9], in [10], in assay [11], in assay [13] and in assay [14] was > 100 µM (inactive) each time. For the same molecule, the GI50 in [15] is > 100 µM (inactive).
Regarding `O=C(Nc1ccccc1SC(/C=C/NNC1=NN=C(c2ccccc2)C(c2ccccc2)N1)c1ccccc1)c1ccc(Cl)cc1Cl` (stereo not given), the GI50 was 37.9 µM (inactive) in assay [1]; 35.6 µM (inactive) in [3]; 27.3 µM (inactive) in [4]; 60.1 µM (inactive) in assay [5]; > 10 µM (inactive) in [6]; 31.4 µM (inactive) in assay [7]. Also, the GI50 was 44.5 µM (inactive) in [8]; 38.8 µM (inactive) in [9]; 42.8 µM (inactive) in [10]; 49.3 µM (inactive) in [11]; 32.6 µM (inactive) in [12]; 80 µM (inactive) in [13]. For the same molecule, the GI50 in [14] and in assay [15] was > 100 µM (inactive) in each case.
In the case of `COc1ccc(NC(=O)CC(=O)N/N=C/c2ccc(N(CCC#N)S(C)(=O)=O)cc2)cc1`, the GI50 in [1], in [16], in [2], in assay [4], in assay [5] and in [6] was > 100 µM (inactive) throughout. Moreover, the GI50 in assay [7], in assay [8], in assay [9], in assay [10], in assay [11] and in assay [12] was > 100 µM (inactive) throughout. Further, the GI50 in assay [14] and in assay [15] was > 100 µM (inactive) in each case.
Turning to `CC(=O)O[C@]12CCCCC1C1(O)C(O)CCCC[C@H]12` (stereo not given in full), the GI50 in [1], in [2], in assay [3], in assay [4], in [5] and in assay [6] was > 100 µM (inactive) each time. For the same molecule, the GI50 in assay [7], in assay [9], in assay [10], in assay [11], in [12] and in [13] was > 100 µM (inactive) in each case. The GI50 in assay [14] and in [15] was > 100 µM (inactive) each time.
`Cc1cc(NS(=O)(=O)c2ccc(Nc3c4ccccc4nc4c(C(=O)NCCN(C)C)cccc34)cc2)no1`: the GI50 in assay [1] is 3.83 µM (inactive); in assay [2], 4.79 µM (inactive); in assay [3], 0.152 µM (active); in assay [4], 2.09 µM (inactive); in assay [5], 2.69 µM (inactive); in assay [6] it was 0.208 µM (active). In addition, the GI50 in [7] is 0.524 µM (active); in [9], 10.9 µM (inactive); in assay [10], 2.49 µM (inactive); in assay [12] it was 3.01 µM (inactive); in assay [13] it was 1.72 µM (inactive); in assay [14], 2.52 µM (inactive). In [15], the GI50 is 35.1 µM (inactive).
On to `CC1C=C[C@H](Sc2ccccc2)CC[C@@]1(C)O` (stereo not given in full), for which the GI50 is > 100 µM (inactive) in assay [1]; > 100 µM (inactive) in assay [16]; 97.3 µM (inactive) in [2]; 33.6 µM (inactive) in [3]; > 100 µM (inactive) in assay [4]; 67.5 µM (inactive) in [5]. For the same molecule, the GI50 in assay [6] is 35.1 µM (inactive); in [7], > 100 µM (inactive); in [9], > 100 µM (inactive); in assay [10], 59.4 µM (inactive); in assay [11] it was > 100 µM (inactive); in assay [12], > 100 µM (inactive). Further, the GI50 is 89.9 µM (inactive) in [13], > 100 µM (inactive) in assay [14] and > 100 µM (inactive) in assay [15].

The values are drawn from ChEMBL document CHEMBL1201862, “PubChem BioAssay data set” (2004).
